The results in this text go back to ChEMBL document CHEMBL5108009, “Positron Emission Tomography (PET) Imaging Tracers for Serotonin Receptors” (J Med Chem, 2022).

For data set [1], the target named is 5-hydroxytryptamine receptor 1A (Homo sapiens) (UniProt P08908). Nature of the data set: Binding affinity to 5-HT1A receptor (unknown origin). To be noted: filed as agonist.
The nature of data set [2]: Lipophilicity, logD of the compound at pH 7.4. The class given is physicochemical. To be noted: buffer.
Data set [3] concerns the target 5-hydroxytryptamine receptor 2A (Rattus norvegicus, UniProt P14842). Nature of the data set: Binding affinity to Wistar rat cortex membrane homogenate 5-HT2A receptor incubated for 90 mins by liquid scintillation counter analysis. The class given is cell membranes.
The target of data set [4] is T1, 5-hydroxytryptamine receptor 7 (Homo sapiens, UniProt P34969). Nature of the data set: Binding affinity to human 5-HT7 receptor expressed in HEK293 cells incubated for 1 hr by 96 microwell plate. To be noted: filed as agonist. Type of data set: cell-based.
The nature of data set [5]: Drug biodistribution in rat brain incubated for 30 mins by autoradiographic analysis. Type of data set: ADME, organism-based. To be noted: in vivo, 0.5 h.
Data set [6] has as its target T1, 5-hydroxytryptamine receptor 7. Nature of the data set: Binding affinity to human recombinant 5-HT7 receptor assessed as inhibition constant.
Data set [7] is described as follows: Drug metabolism in monkey plasma assessed as unchanged compound at 120 mins postinjection relative to control. Type of data set: ADME, organism-based, Macaca mulatta. To be noted: rhesus monkey, read-out: Stability.
Data set [8] deals with T2, 5-hydroxytryptamine receptor 2C (Homo sapiens, UniProt P28335).
T2 sequence (P28335 whole entry): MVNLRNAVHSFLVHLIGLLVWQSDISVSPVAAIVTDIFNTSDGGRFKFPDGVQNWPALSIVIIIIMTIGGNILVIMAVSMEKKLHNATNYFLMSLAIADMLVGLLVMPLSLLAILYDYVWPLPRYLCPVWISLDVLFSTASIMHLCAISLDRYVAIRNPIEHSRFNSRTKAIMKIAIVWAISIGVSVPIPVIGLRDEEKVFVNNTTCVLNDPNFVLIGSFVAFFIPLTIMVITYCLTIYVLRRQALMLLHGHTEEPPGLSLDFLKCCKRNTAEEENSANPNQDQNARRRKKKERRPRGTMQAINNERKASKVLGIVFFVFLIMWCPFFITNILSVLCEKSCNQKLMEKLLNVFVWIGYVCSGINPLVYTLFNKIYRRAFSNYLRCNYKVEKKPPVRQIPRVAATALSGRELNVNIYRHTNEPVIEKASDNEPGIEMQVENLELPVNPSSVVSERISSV
The data set is described as follows: Binding affinity to human 5-HT2C assessed as inhibition constant.

For data set [9], the target named is T3, 5-hydroxytryptamine receptor 1A (Homo sapiens, UniProt P08908).
T3 sequence (P08908 whole entry): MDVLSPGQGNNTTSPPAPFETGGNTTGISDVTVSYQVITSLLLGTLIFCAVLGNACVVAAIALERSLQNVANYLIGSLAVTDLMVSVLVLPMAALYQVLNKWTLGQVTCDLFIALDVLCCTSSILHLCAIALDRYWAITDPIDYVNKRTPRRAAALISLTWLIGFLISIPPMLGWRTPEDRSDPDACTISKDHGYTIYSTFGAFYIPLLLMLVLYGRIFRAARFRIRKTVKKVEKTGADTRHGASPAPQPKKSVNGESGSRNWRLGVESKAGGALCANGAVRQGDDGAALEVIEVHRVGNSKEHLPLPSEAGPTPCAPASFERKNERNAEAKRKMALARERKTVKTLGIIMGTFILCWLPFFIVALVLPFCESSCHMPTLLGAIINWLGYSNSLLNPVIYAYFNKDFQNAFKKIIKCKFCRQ
Nature of the data set: Binding affinity to human recombinant 5-HT1A expressed in CHO cells assessed as inhibition constant. Type of data set: cell-based.

Data set [10] deals with T1, 5-hydroxytryptamine receptor 7. The data set is described as follows: Binding affinity to human recombinant 5-HT7 receptor expressed in CHO cells assessed as inhibition constant. The class given is cell-based.
The nature of data set [11]: Drug uptake in rat brain. The class given is ADME, tissue-based. To be noted: in vivo.
For data set [12], the target named is T3, 5-hydroxytryptamine receptor 1A.
In data set [13] the target is 5-hydroxytryptamine receptor 2A (Homo sapiens, UniProt P28223). Nature of the data set: Binding affinity to human 5-HT2A transfected in human tsA201 cells assessed as inhibition constant incubated for 2 hrs by scintillation counter analysis. The class given is cell-based.
In data set [14] the target is 5-hydroxytryptamine receptor 7 (Rattus norvegicus, UniProt P32305). Nature of the data set: Binding affinity to rat 5-HT7 receptor assessed as inhibition constant.
Data set [15] in a line: Ratio of drug uptake in rhesus monkey temporal cortex to cerebellum assessed as non-displaceable binding potential. To be noted: in vivo. The class given is ADME, tissue-based, Macaca mulatta.
The target of data set [16] is Alpha-1A adrenergic receptor (Homo sapiens) (UniProt P35348). Nature of the data set: Binding affinity to alpha 1A adrenergic receptor (unknown origin). To be noted: filed as antagonist.
For data set [17], the target named is T4, 5-hydroxytryptamine receptor 1A (Rattus norvegicus, UniProt P19327).
T4 sequence (P19327 whole entry): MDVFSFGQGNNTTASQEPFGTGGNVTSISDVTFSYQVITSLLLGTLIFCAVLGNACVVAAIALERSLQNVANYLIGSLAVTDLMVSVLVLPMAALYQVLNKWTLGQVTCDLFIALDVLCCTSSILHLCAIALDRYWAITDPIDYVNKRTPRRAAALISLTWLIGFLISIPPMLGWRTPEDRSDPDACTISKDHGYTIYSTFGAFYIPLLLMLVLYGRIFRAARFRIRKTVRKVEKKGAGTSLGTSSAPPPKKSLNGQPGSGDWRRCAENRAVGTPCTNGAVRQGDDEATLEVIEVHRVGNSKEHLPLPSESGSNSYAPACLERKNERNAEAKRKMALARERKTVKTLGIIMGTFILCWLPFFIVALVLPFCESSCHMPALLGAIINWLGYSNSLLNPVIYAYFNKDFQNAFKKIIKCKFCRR
The data set is described as follows: Displacement of [3H]-8-OH-DPAT from rat hippocampal membrane 5HT1A receptor by CEREP assay. The class given is cell membranes, Hippocampus.

Data set [18] can be described thus: Biodistribution in rat assessed as drug uptake measured as percentage of injected dose per gram of tissue relative to control. The class given is ADME, organism-based. To be noted: in vivo.
Data set [19] can be described thus: Ratio of drug uptake in rat hippocampus to cerebellum by measuring radioactivity at […], iv. To be noted: in vivo, dose 25-30 mCi. The class given is ADME, tissue-based.
Data set [20] can be described thus: Ratio of drug uptake in rat temporal cortex to cerebellum by measuring radioactivity at 10 mins postinjection. The class given is ADME, organism-based. To be noted: in vivo.
The nature of data set [21]: Ratio of drug uptake in rat temporal cortex to cerebellum by measuring radioactivity at 20 mins postinjection. Type of data set: ADME, organism-based. To be noted: in vivo.
Data set [22] deals with Serotonin 3 (5-HT3) receptor.
Description: Inhibition of 5HT3 receptor (unknown origin)
The species named for data set [23] is Macaca mulatta. The data set is described as follows: Binding affinity to rhesus monkey mesial temporal cingulate cortex 5-HT1A. The class given is tissue-based. To be noted: filed as antagonist, tested as the 18F-labelled form.
The species named for data set [24] is Macaca mulatta. The data set is described as follows: Binding affinity to rhesus monkey dorsal anterior cingulate cortex 5-HT1A. Type of data set: tissue-based. To be noted: filed as antagonist, tested as the 18F-labelled form.

T1 sequence (P34969 whole entry): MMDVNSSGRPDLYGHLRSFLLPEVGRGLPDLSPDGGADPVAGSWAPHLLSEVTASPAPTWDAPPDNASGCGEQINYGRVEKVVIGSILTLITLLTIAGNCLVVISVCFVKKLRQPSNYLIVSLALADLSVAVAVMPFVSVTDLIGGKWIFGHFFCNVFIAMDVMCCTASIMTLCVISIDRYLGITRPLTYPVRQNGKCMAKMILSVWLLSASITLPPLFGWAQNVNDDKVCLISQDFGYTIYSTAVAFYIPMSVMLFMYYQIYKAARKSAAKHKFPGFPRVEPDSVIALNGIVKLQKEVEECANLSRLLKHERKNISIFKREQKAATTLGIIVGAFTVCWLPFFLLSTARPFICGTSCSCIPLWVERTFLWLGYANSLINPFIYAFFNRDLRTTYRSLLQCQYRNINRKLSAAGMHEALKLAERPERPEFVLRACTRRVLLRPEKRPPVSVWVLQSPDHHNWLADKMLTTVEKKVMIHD
Sequence of 5-hydroxytryptamine receptor 2A (Homo sapiens, UniProt P28223) (P28223 whole entry): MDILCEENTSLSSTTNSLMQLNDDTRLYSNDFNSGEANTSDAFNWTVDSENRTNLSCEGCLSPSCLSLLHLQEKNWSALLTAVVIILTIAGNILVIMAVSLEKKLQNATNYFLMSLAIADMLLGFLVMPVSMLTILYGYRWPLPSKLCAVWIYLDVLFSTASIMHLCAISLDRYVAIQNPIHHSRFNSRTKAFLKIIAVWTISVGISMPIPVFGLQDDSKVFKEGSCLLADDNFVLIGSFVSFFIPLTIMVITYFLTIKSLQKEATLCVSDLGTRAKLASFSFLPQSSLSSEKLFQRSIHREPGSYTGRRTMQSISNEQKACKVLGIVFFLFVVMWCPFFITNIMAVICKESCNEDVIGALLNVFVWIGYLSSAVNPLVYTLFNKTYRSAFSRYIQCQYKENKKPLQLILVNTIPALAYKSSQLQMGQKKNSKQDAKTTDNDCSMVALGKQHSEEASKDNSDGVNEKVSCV
Sequence of Alpha-1A adrenergic receptor (Homo sapiens) (P35348 whole entry): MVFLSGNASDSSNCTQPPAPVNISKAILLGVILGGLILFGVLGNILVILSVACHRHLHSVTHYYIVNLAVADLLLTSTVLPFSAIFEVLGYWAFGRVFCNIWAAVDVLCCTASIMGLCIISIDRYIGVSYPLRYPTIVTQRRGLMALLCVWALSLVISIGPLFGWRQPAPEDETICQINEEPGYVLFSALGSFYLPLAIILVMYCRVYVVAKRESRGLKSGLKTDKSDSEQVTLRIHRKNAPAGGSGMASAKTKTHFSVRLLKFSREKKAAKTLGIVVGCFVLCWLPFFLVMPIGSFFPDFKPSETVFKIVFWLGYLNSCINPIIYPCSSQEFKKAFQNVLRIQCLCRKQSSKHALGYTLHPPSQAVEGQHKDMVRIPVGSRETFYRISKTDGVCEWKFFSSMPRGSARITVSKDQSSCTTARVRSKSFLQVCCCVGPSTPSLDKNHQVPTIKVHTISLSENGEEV
Sequence of 5-hydroxytryptamine receptor 7 (Rattus norvegicus, UniProt P32305) (P32305 whole entry): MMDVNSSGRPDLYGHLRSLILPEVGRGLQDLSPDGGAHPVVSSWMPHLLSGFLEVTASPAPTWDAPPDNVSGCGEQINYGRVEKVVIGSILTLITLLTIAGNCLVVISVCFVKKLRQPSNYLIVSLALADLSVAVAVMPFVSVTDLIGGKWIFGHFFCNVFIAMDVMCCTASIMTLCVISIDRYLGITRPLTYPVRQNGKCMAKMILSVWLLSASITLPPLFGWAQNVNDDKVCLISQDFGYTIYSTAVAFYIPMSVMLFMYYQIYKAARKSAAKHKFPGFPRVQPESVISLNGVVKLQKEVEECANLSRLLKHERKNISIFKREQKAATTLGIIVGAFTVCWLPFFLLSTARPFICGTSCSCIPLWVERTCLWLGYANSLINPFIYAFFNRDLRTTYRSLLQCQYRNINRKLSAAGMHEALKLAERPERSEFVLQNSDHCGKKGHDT
Sequence of 5-hydroxytryptamine receptor 2A (Rattus norvegicus, UniProt P14842) (P14842 whole entry): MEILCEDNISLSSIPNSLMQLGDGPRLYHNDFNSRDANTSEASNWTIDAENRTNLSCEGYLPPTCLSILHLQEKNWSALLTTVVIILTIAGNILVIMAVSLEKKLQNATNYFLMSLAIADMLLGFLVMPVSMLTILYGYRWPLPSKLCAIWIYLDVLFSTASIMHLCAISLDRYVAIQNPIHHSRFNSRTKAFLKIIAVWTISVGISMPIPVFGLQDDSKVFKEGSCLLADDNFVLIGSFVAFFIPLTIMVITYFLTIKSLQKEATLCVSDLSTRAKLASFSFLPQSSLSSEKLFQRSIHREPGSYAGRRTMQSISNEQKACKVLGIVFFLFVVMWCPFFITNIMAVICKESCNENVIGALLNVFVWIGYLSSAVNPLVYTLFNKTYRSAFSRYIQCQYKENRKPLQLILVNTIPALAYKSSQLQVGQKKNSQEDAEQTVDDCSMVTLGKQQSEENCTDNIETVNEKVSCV

Consider `COc1ccccc1N1CCN(CC(O)COc2cccc3c2SCCC3)CC1` (centres undefined), for which the K in data set [1] stood at 5 nM.
Molecule `CC1(NC(=O)c2ccc(N)cc2)CCN(CCCOc2ccc([18F])cc2)CC1` returned a logD in [2] of 2.53.
For the molecule `[O-][S+](c1ccc(F)cc1)C1CCN(CCc2ccc(F)cc2F)CC1` (centres undefined), the Ki in [3] is 198 nM.
The molecule `CCn1cncc1-c1c[nH]c2ccc(OC)cc12` returned a K in [4] of 30 nM.
The molecule `O=S(=O)(c1ccc([18F])cc1)C1CCN(CCc2ccc(F)cc2F)CC1` had a Drug uptake in data set [5] greater than 80%.
As to `COc1cccc(N2CCN(CCCCC3C(=O)Nc4ccccc43)CC2)c1` (centres undefined), in data set [6], the Ki was determined as 2.6 nM.
Take `CN1CCN(c2cc(F)cc3c(=O)cc(C(=O)Nc4ccc(N5CCOCC5)c([18F])c4)oc23)CC1`: the remaining at 2 h in data set [7] is greater than 40%.
For `COc1c(OCCF)cccc1[C@H](O)C1CCN(CCc2ccc(F)cc2)CC1`, the Ki in data set [8] amounted to 71 nM.
On to `COc1ccccc1N1CCN(CCC[C@H]2CCCN2S(=O)(=O)c2ccccc2F)CC1`, for which the Ki in data set [9] was 4.1 nM; in [10], 1.9 nM.
As to `COc1ccc2cccc(N3CCN(CCNC(=O)c4ccc([18F])cc4)CC3)c2c1`, in data set [11], the SUV was found to be 2. Also, the Ki in data set [12] was 0.98 nM.
Take `COc1cc(Br)c(OCC[18F])cc1CCNCc1ccccc1OC`: the Ki in [13] was less than 1.2 nM.
On the same count and under the same terms, with `COc1cc(CCNCc2ccccc2OC)c(OCC[18F])cc1Br` the figure was less than 1.2 nM.
With `CCC1(CCCCN2CCN(c3cccc(OCCF)c3)CC2)C(=O)Nc2ccccc21` (centres undefined), in [14], the Ki worked out at 13 nM.
On to `Cc1ccc(N2CCN(CCCCC3C(=O)Nc4ccccc43)CC2)cc1` (centres undefined), for which the Ki in data set [6] was 1.1 nM.
Consider `COc1ccccc1N1CCN(CCN(c2ccccn2)C(=O)[C@H]2CC[C@@H](C[18F])CC2)CC1`, for which the Ratio in data set [15] amounted to 0.58.
As to `COc1ccccc1N1CCN(CCCCN(C)C(=O)c2cnc(SC)n2C)CC1`, the K in data set [16] is 5.45 nM. Further, the IC50 in data set [17] stood at 0.86 nM.
With `COc1ccccc1N1CCN(CCCCN(C)C(=O)c2cnc(S[11CH3])n2C)CC1`, in data set [18], the Drug uptake is 0.37 % ID/g.
For the molecule `O=C(C1CCCCC1)N(CCN1CCN(c2ccccc2OCC[18F])CC1)c1ccccn1`, the Ratio in data set [19] was found to be 5.5.
On to `COc1ccccc1N1CCN(CCN(c2cccc(F)n2)[11C](=O)N2CCCCC2)CC1`, for which the Ratio in data set [20] is 1.9; in data set [21], 3.
Consider `COc1ccccc1N1CCN(CCC[C@H]2CCCN2S(=O)(=O)c2ccc(F)cc2)CC1`, for which the Ki stood at 6.8 nM in data set [9] and 2.6 nM in data set [10].
As to `COc1cn2cccc2c(N2CCN(Cc3ccc(F)cc3)CC2)n1`, the IC50 in data set [22] was 6.6 nM.
On to `O=C(C1CCCCC1)N(CCN1CCN(c2ccccc2OCCC[18F])CC1)c1ccccn1`, for which the Ratio in [19] is given as 7.5.
`CN1CCN(c2ccc3ccccc3n2)CC1`: the half-inhibitory concentration (IC50) in data set [22] was 4.7 nM.
Turning to `COc1ccccc1N1CCN(CCCCn2ccnc2S[11CH3])CC1`, the Drug uptake in data set [18] is 1.14 % ID/g.
Consider `[O-][S+](c1ccc([18F])cc1)C1CCN(CCc2ccc(F)cc2F)CC1` (centres undefined), for which the Drug uptake in [5] turned out to be 30%.
Molecule `NC(=O)c1ccc(F)c2c1CC(N(C1CCC1)C1CCC1)CO2` (centres undefined) showed a logD in [2] of 2.5. The Ki in data set [12] was 0.6 nM.
For `CC1(CCCCN2CCN(c3cccc(OCCF)c3)CC2)C(=O)Nc2ccccc21` (centres undefined), the Ki in [14] worked out at 5.6 nM.
As to `COc1ccccc1N1CCN(CCN(c2ccccn2)C(=O)[C@H]2CC[C@H](CF)CC2)CC1`, the Bmax in the data set filed under Macaca mulatta [23] amounted to 42 pmol/mL; in the data set filed under Macaca mulatta [24] it was 36 pmol/mL.
On to `COc1ccccc1N1CCN(CCCCn2ccnc2SC)CC1`, for which, in data set [16], the K is 3 nM. Besides, the IC50 in data set [17] is 0.58 nM.
`COc1ccccc1N1CCN(CCN(c2ccccn2)C(=O)[C@H]2CC[C@H](C[18F])CC2)CC1`: the Ratio in [15] worked out at 7.7. This molecule gave a Ki in data set [12] of 0.9 nM.
